The text below walks through data of patent publication US4906639A, “Cycloalkanol esters of dihydrolysergic acid” (Eli Lilly and Company, priority 1989, dated 1990).

Structures can show the parent of a compound that is named as a salt.

The test system of one assay is 5HT2 receptors.
Assay: not given
The following applies: mediated by 5HT2 receptors; Cohen I; cited from earlier work.
With `CC(O)C(C)OC(=O)[C@@H]1C[C@@H]2c3cccc4c3c(cn4C(C)C)C[C@H]2N(C)C1` (stereo partly drawn) [LY53857, 1-isopropyl-6-methyl-8β-(1-methyl-2-hydroxy)propoxycarbonyl-5R-ergoline], the “antagonism of vascular contraction to serotonin” value was “potent antagonist”.

For the next assay, the target named is T1, 5HT2 receptors (Rattus norvegicus, UniProt P14842).
T1 construct: their external jugular veins and thoracic aortas dissected free of connective tissue; from tissue; host or cells: isolated external jugular vein of male Wistar rats
T1 sequence (P14842 whole entry): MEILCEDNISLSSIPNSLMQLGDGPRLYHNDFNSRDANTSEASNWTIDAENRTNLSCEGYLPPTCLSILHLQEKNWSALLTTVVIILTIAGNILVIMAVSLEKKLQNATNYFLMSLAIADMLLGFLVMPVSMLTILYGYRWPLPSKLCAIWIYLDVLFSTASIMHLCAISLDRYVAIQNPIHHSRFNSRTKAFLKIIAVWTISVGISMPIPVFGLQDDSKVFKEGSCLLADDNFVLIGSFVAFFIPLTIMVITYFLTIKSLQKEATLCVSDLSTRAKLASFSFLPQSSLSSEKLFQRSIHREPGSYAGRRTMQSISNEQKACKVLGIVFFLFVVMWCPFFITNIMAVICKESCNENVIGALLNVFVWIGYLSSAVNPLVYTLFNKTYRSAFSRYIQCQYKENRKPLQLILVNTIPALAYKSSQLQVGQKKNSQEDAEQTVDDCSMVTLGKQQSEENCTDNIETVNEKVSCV
The assay can be described thus: Apparent dissociation constants for 5HT2 receptors determined in the rat jugular vein (antagonism of contraction to serotonin). In kind it is cell-based, rat (male Wistar). The following applies: antagonist incubated one hour, agonist serotonin, 37° C., read-out: -log KB (apparent dissociation constant, negative logarithm) (converted). The protocol:
An initial optimum resting force of 1 and 4 g was applied to the jugular vein and aorta, respectively. […] Exp. Ther., 205, 400 (1978). Alpha receptor antagonist activity was evaluated in the aorta.
What is called Kb is the affinity of an antagonist, worked out from how it opposes an agonist. As for `CC(C)n1cc2c3c(cccc31)[C@H]1C[C@@H](C(=O)OC3CCC(=O)CC3)CN(C)[C@@H]1C2` [CH3,4-oxocyclohexyl, maleate, 4-Oxocyclohexyl 1-isopropyl-9,10-dihydrolysergate], the Kb was 0.0977 nM. Still for that read-out and setting: the figure for `CCN1C[C@H](C(=O)OC2CCCCC2)C[C@@H]2c3cccc4c3c(cn4C(C)C)C[C@H]21` [C2 H5, cyclohexyl, HCl, 1-Isopropyl-6-ethyl-8β-cyclohexyloxycarbonylergoline] is 15.5 nM; for `CC(C)n1cc2c3c(cccc31)[C@H]1C[C@@H](C(=O)OC3CCCCC3)CN(C)[C@@H]1C2` [CH3, cyclohexyl, maleate, cyclohexyl 1-isopropyl-9,10-dihydrolysergate maleate] it is 2.14 nM; for `CCCN1C[C@H](C(=O)OC2CCCCC2)C[C@@H]2c3cccc4c3c(cn4C(C)C)C[C@H]21` [n-C3 H7, cyclohexyl, HCl] it is 85.1 nM. Same read-out and setting: the figure for `CCCCN1C[C@H](C(=O)OC2CCCCC2)C[C@@H]2c3cccc4c3c(cn4C(C)C)C[C@H]21` [n-C4 H9, cyclohexyl, HCl, 1-Isopropyl-6-n-butyl-8β-cyclohexyloxycarbonyl ergoline hydrochloride] is 39.8 nM.
